This experiment relates to castrated male cynomolguses. Nature of the experiment: Serum DHEA and testosterone in castrated male cynomolguses after repeated oral administration (RIA). Format: in vivo. As to conditions: castrated male cynomolgus, 7.5 or 15 mg/kg/dose oral, twice a day for one week. The protocol: (+)-6-(7-Hydroxy-6,7-dihydro-5H-pyrrolo[1,2-c]imidazol-7-yl)-N-methyl-2-naphthamide was used as a test compound belonging to compound (I′). For oral administration, the test compound was weighed and placed in a mortar, 0.5% methylcellulose solution was added thereto, and the mixture was sufficiently admixed with a pestle to give a suspension.
6 to 12-year-old castrated male cynomolguses were divided into two groups (7.5 mg/kg/time test compound administration group and 15 mg/kg/time test compound administration group) each including 3 cynomolguses such that blood DHEA concentration would be impartial. The test compound was repeatedly administered orally twice a day (bid) for one week. Blood samples were collected twice a day from 3 days prior to the administration through the final day of administration. Vehicle (0.5% methylcellulose) was administered about one month after the completion of administration, and blood samples were collected according to the same schedule. Serum DHEA and serum testosterone concentrations were measured by RIA (radioimmunoassay).
The serum DHEA concentrations of the test compound administration group are shown in FIG. 1, and the serum DHEA concentrations of the vehicle administration group where vehicle was administered about a month after completion of the administration of the test compound are shown in FIG. 2. […]

SMILES strings stand for the structures.

In the case of `CNC(=O)c1ccc2cc(C3(O)CCn4cncc43)ccc2c1` (single isomer, unassigned; (+)) [test compound, (+)-6-(7-Hydroxy-6,7-dihydro-5H-pyrrolo[1,2-c]imidazol-7-yl)-N-methyl-2-naphthamide], the “serum DHEA concentration” value (FIG. 1, maintained at low levels during the administration period) is on record as “decreased”. The serum testosterone concentration entry (FIG. 3, maintained at low levels during the administration period) is recorded as “decreased”.

For the origin of these results see patent US20140256693A1, “PYRROLO [1,2-C] IMIDAZOLE DERIVATIVES FOR USE IN THE PROPHYLAXIS OR TREATMENT OF CANCER WHICH IS REFRACTORY TO KNOWN CANCER THERAPIES” (TAKEDA PHARMACEUTICAL COMPANY LIMITED, priority 2007, published 2014).
